In patent publication US20250154099A1, “PREPARATION METHOD OF 2-PHENYLINDOLE DERIVATIVES AND APPLICATION THEREOF” (Shihezi University, priority 2022, published 2025):
≈ marks a conversion by molar mass, not a printed value. Read-outs that look alike come from different tables or passages of the source.

What was measured:
[1] = tested on: Aspergillus fumigatus Fresenius BNCC338385; assay: MIC by microdilution method, sensitive Aspergillus fumigatus Fresenius; assay type: cell-based; details: Aspergillus fumigatus, 24 h, read-out: MIC Aspergillus fumigatus Fresenius
Excerpt: (§1) Used bacteria: including drug-resistant bacteria and sensitive bacteria: the used sensitive strains include Cryptococcus neoformans BNCC225501, Candida albicans BNCC186382, Aspergillus fumigatus Fresenius BNCC338385, Escherichia coli BNCC336902, Staphylococcus aureus BNCC186335 and Pseudomonas aeruginosa Migula BNCC337940, and the used drug-resistant Candida albicans is clinically isolated azole multi-drug resistant Candida albicans (CA10) donated by Qianfoshan Hospital in Shandong Province. The strains are stored in normal saline containing 20% glycerol at −80° C. for a long time. Before operation, the strains are lined and transferred to a YPD solid plate, and subjected to static culture at 30° C. for 24 h; single colonies are selected and transferred to a YPD liquid medium, and cultured at 200 rpm at 30° C. overnight; and the overnight cultured bacterial solution is inoculated into a new YPD liquid medium at a ratio of about 1:100, and subjected to shaking culture at 200 rpm at 30° C. for 4 h so that Candida albicans is in a logarithmic phase.
(§2) Culture medium: the culture medium used by the microdilution method is RPMI-1640 culture medium (Gibco).
(§3) 1.2 Operation and results of detection of minimum inhibitory concentration (MIC) of the compounds and the azole drugs by the microdilution method: the MIC of the synthesized compound and the azole drug fluconazole for the standard strains is detected by the microdilution method according to fungal sensitivity detection method (M27-A3) established by the Clinical and Laboratory Standards Institute (CLSI). Specific steps are as follows: the prepared strain concentration is adjusted to 0.5-2.5×10^3 CFU/mL by using RPMI-1640 medium. 200 μL of bacterial solution containing the highest concentration of the drug to be detected is added into the first well of a 96-well plate, and 100 μL of blank bacterial solution without drug is added into each of the other wells; the bacterial solution is diluted to a series of concentration gradients by a double gradient dilution method; the well plate is subjected to static culture at constant temperature of 35° C. for 24 h; after the absorbance (OD) of each concentration gradient at 570 nm is detected by a microplate reader and the absorbance of a blank medium is subtracted, the growth rate=dosing hole value/control hole value ×100%, the inhibition rate=1−growth rate, and the minimum concentration with the inhibition rate greater than 80% is the minimum inhibitory concentration (MIC) value.

[2] = tested on: Pseudomonas aeruginosa Migula BNCC337940; assay: MIC by microdilution method, sensitive Pseudomonas aeruginosa Migula; assay type: cell-based; details: 24 h, read-out: MIC Pseudomonas aeruginosa Migula
Excerpt: as §1, §2, §3

[3] = tested on: RAW 264.7 murine macrophage cells; assay: MTT cytotoxicity test on RAW 264.7; assay type: cell-based, mouse; details: for IC50: Mus musculus, RAW264.7, 24 h, read-out: IC50 RAW 264.7 cell viability
Protocol: 3.1.1 Cell line: RAW 264.7 murine macrophage cells are donated by Shihezi University College of Pharmacy, and cultured in a 37° C. constant temperature incubator with high glucose DMEM medium (Gibco), 10% FBS serum (Gibco) and 5% CO2, and subculturing and related experimental operation are conducted when cell fusion degree reaches about 70-80%.
3.1.2 Materials and reagents: fetal bovine serum (American BI company), DMEM high glucose medium (American Gibco company), penicillin-streptomycin solution (Shanghai Solarbio company), PBS buffer solution (American Gibco company), isopropyl alcohol (analytically pure), dimethyl sulfoxide (DMSO) (Shanghai Solarbio company), and MTT powder (Shanghai Solarbio company).
Logarithmic RAW 264.7 cells are taken; cell suspension is prepared with a complete medium; the concentration of the cell suspension is adjusted to about 5×10^4 cells/mL; 200 μl of cell suspension is added into each hole of the 96-well culture plate and cultured in 5% CO2 in an incubator at 37° C. for about 24 h until the cells grow to the cell wall (at density of 50%); the medium is absorbed by a 5 ml needle tube or negative pressure; RAW 264.7 is divided into a blank group, a solvent control group and a drug administration group; in the blank group, there is no cell, and a medium, MTT and DMSO are added; in the solvent control group, cells, the same concentration of drug dissolving media, culture solution, MTT and DMSO are added; in the drug administration group, medical solution for diluting the concentration gradient with serum-free medium (containing 1% PE) is added; each concentration shall set at least 3 complex wells; 100 μl of medical solution is added into each well; and the culture plate is continued to be incubated in the incubator for 24 h. […] 100 μl of DMSO is added into each well to dissolve formazan crystals, and shaken in a shaker for 10 min at low speed to fully dissolve the crystals. The absorbance (OD) value of each well at 490 nm is determined by the microplate reader, and the cell viability is calculated by the formula: Cell viability (%)=(OD drug administration group−OD blank group)/(OD solvent control group−OD blank group)× 100%.
OD values at 490 nm are determined by the experimental method in each group, and the data are subjected to one-way analysis of variance by Graphpad prism 8.0 software.

[4] = tested on: Cryptococcus neoformans BNCC225501; assay: MIC by microdilution method, sensitive Cryptococcus neoformans; assay type: cell-based; details: Cryptococcus neoformans, read-out: MIC Cryptococcus neoformans
Excerpt: as §1, §2, §3

[5] = tested on: Escherichia coli BNCC336902; assay: MIC by microdilution method, sensitive Escherichia coli; assay type: cell-based; details: read-out: MIC Escherichia coli
Excerpt: as §1, §2, §3

[6] = tested on: Staphylococcus aureus BNCC186335; assay: MIC by microdilution method, sensitive Staphylococcus aureus; assay type: cell-based; details: read-out: MIC Staphylococcus aureus
Excerpt: as §1, §2, §3

Candida albicans CA10 = assay: Checkerboard microdilution assay of compound combined with fluconazole, FICI model; assay type: cell-based; details: for MIC of compound combined: compound concentration in combination with fluconazole; for MIC of compound combined / MIC of azole (fluconazole) combined: inhibition rate about 80%; for FICI: compound plus fluconazole; for MIC of azole (fluconazole) combined: fluconazole concentration in combination with the compound; for MIC: Candida albicans
Protocol: The concentration of Candida albicans CA10 is adjusted to 0.5-2.5×10^3 CFU/mL by using RPMI-1640 medium, and the diluted bacterial solution is used for preparing a working solution of the compound and the azole drug with double concentration gradient. 50 μl of working solution of double concentration of azole drugs and working solution of double concentration of the compound to be detected at each concentration gradient are added in the longitudinal (A-H) direction and transverse (1-12) direction of the 96-well plate respectively, so that the final drug concentration range of fluconazole is 4-64 μg/ml, and the drug concentration range of the compound is 256-16 μg/ml. The 96-well plate is cultured in a constant temperature incubator at 35° C. for 24 h. The amount of viable bacteria is detected with an XTT cell proliferation assay kit, and the absorbance of each well at 490 nm wavelength is detected by the microplate reader. Growth rate=dosing well value/control well value×100%, and inhibition rate=1−growth rate. The MIC when the inhibition rate is about 80% is a break point of the combination of two drugs.
The combination data of the compound and the azole drug collected by the checkerboard microdilution assay are analyzed by an FICI (fractional inhibitory concentration index) model, and the interaction effects are evaluated.
The FICI model can be expressed by the following formula: […]
Wherein: MICA and MICB are MIC values of drug A and drug B used separately, while MICAB and MICBA are the concentrations of drug A and drug B corresponding to the minimum effective dose of the combination of drug A and drug B.

[7] = tested on: Candida albicans BNCC186382; assay: MIC by microdilution method, sensitive Candida albicans; assay type: cell-based; details: Candida albicans, read-out: MIC Candida albicans
Excerpt: as §1, §2, §3

[8] = tested on: Drug-resistant Candida albicans CA10; assay: MIC by microdilution method, drug-resistant Candida albicans CA10; assay type: cell-based; details: clinically isolated azole multi-drug resistant strain CA10; 24 h
Excerpt: as §1, §2, §3

[9] = sensitive strain, 35° C., minimum concentration with inhibition rate greater than 80%
[10] = BNCC225501, sensitive strain, 35° C., 24 h, minimum concentration with inhibition rate greater than 80%
[11] = BNCC336902, sensitive strain, 35° C., 24 h, minimum concentration with inhibition rate greater than 80%
[12] = BNCC186335, sensitive strain, 35° C., 24 h, minimum concentration with inhibition rate greater than 80%
[13] = CA10, compound alone, read-out: MIC of compound used separately
[14] = BNCC186382, sensitive strain, 35° C., 24 h, minimum concentration with inhibition rate greater than 80%

| MIC of compound combined (Candida albicans CA10; CA10) [µg/mL] | MIC of azole (fluconazole) combined (Candida albicans CA10; CA10) [µg/mL] | MIC80 Drug-resistant Candida albicans CA10 [8] [µg/mL] | MIC [1, 9] [µg/mL] | MIC [2, 9] [µg/mL] | MIC [4, 10] [µg/mL] | MIC [5, 11] [µg/mL] | MIC [6, 12] [µg/mL] | MIC (Candida albicans CA10; [13]) [µg/mL] | MIC [7, 14] [µg/mL] | Structure (SMILES) | IC50 [3] [µM] | FICI (Candida albicans CA10; CA10) | toxicity to RAW 264.7 cells ([3]; 24 h) | further results |
| --- | --- | --- | --- | --- | --- | --- | --- | --- | --- | --- | --- | --- | --- | --- |
| 16 | 8 | 32 (≈ 141 µM) | 8 (≈ 35.1 µM) | 16 (≈ 70.3 µM) | 16 (≈ 70.3 µM) | 16 (≈ 70.3 µM) | 8 (≈ 35.1 µM) | 32 | 16 (≈ 70.3 µM) | Clc1ccc2cc(-c3ccccc3)[nH]c2c1 [Compound 4] | 100 | 0.563 | no obvious toxicity | sensitivity of clinical multi-drug resistant strain CA10 to the azole drug (Candida albicans CA10; combination with fluconazole): can improve the sensitivity |
| 64 | 8 | 256 (≈ 1210 µM) | 16 (≈ 75.7 µM) | 256 (≈ 1210 µM) | 256 (≈ 1210 µM) | 16 (≈ 75.7 µM) | 32 (≈ 151 µM) | > 256 | 16 (≈ 75.7 µM) | Fc1ccc2cc(-c3ccccc3)[nH]c2c1 [Compound 5] | 12.5 | 0.313 | no obvious toxicity | cell proliferation of RAW 264.7 ([3]; 24 h, different concentrations): may inhibit cell proliferation in a concentration-dependent way |

| Structure (SMILES) | MIC of compound combined (Candida albicans CA10; CA10) [µg/mL] | MIC of azole (fluconazole) combined (Candida albicans CA10; CA10) [µg/mL] | MIC80 Drug-resistant Candida albicans CA10 [8] [µg/mL] | MIC [1, 9] [µg/mL] | MIC [2, 9] [µg/mL] | MIC [4, 10] [µg/mL] | MIC [5, 11] [µg/mL] | MIC [6, 12] [µg/mL] | MIC (Candida albicans CA10; [13]) [µg/mL] | MIC [7, 14] [µg/mL] | IC50 [3] [µM] | FICI (Candida albicans CA10; CA10) | toxicity to RAW 264.7 cells ([3]; 24 h) | further results |
| --- | --- | --- | --- | --- | --- | --- | --- | --- | --- | --- | --- | --- | --- | --- |
| Cc1ccccc1-c1cc2ccccc2[nH]1 [Compound 2] | 8 | 8 | 32 (≈ 154 µM) |  |  |  |  |  |  |  | 50 | 0.313 |  | MIC [1]: 16 µg/mL (≈ 77.2 µM); MIC [2]: 256 µg/mL (≈ 1240 µM); MIC ([4]; BNCC225501, 24 h): 2 µg/mL (≈ 9.65 µM); MIC ([5]; BNCC336902, 24 h): 8 µg/mL (≈ 38.6 µM); MIC ([6]; BNCC186335, 24 h): 8 µg/mL (≈ 38.6 µM); MIC (Candida albicans CA10; CA10, read-out: MIC of compound used separately): 32 µg/mL; MIC ([7]; BNCC186382, 24 h): 4 µg/mL (≈ 19.3 µM) |
